{
  "source": "patent US8623832B2",
  "about": "“Peptide compositions that bind TLR-4” (The Board of Regents of the University of Oklahoma, priority 2011, dated 2014)",
  "key": {"IL-1β and IL-6": {"test_system": "IL-1β and IL-6", "test": "Expression of IL-1β and IL-6 in SW480 cell lysates by immunoblotting", "format": "cell-based, human", "procedure": "Expression of IL-1β and IL-6: Two treatment models (post- and pre-LPS treatment) were utilized for assessing the effects of SPA4 peptide on LPS-induced cytokines: IL-1β and IL-6. Post-LPS treatment models (short-term and long-term) are described above. In pre-LPS treatment model, the SW480 cells were pretreated with SPA4 peptide (10 μM) for 2 hours, followed by LPS-challenge (1.0 μg/ml) for another 4 hours. The cell-lysates were prepared either in commercially available cell-culture lysis reagent (Promega, WI) or directly into SDS-PAGE sample buffer containing 50 mM dithiothreitol (Cell Signalling Technology, MA). Ten μg of cell-lysate proteins were separated on 4-20% Novex Tris-glycine gradient SDS-PAGE gel (Invitrogen, CA) or 10% separating-5% stacking acrylamide gel. The expression levels of cytokines were measured by immunoblotting as described above using 1:1000 diluted antibodies against IL-1β and IL-6. Both antibodies were purchased from Santacruz Biotech, CA."}, "NF-κB": {"test_system": "NF-κB", "test": "NF-κB luciferase reporter activity in LPS-challenged SW480 cells", "format": "cell-based, human", "conditions": "LPS 1.0 μg/ml", "procedure": "NF-κB activity: Since binding of LPS to TLR4 activates NF-κB through MYD88-dependent and independent pathways, the effects of SPA4 peptide on basal and LPS-induced NF-κB activity were investigated in SW480 cells transfected with a dominant negative construct of MYD88 (MYD88DN) and NF-κB firefly-luciferase reporter plasmid DNA. Both the short-(1 hour) and long-term (5 hours) effects of the SPA4 peptide on NF-κB activity were studied.\nThe SW480 cells were transiently-transfected with NF-κB firefly-luciferase reporter plasmid pGL4.32 (luc2P/NF-κB-RE/Hygro, Promega, WI; provided by Dr. Kelly Standifer, Department of Pharmaceutical Sciences, University of Oklahoma Health Sciences Center, Oklahoma City, Okla.) and MYD88-dominant negative plasmid construct (MYD88DN, provided by Dr. Ruslan Medzhitov, Yale University, CT). MYD88 dominant negative plasmid DNA construct lacked the death domain and intermediate domain (Medzhitov et al., 1998). Briefly, NF-κB-Luciferase reporter and MYD88-dominant negative plasmids (1.0 μg each) were mixed with 6 μl of Fugene HD reagent (Roche, Ind.) in 92 μl of serum-free low-glucose DMEM medium (Invitrogen, CA), and incubated for 20 minutes at room temperature. The transfection-mix was then added to the SW480 cells. The SW480 cells transfected with a plasmid DNA construct expressing enhanced green fluorescent protein (pHYG-EGFP; Clontech, CA) were observed under Leica DM4000B fluorescent microscope. The transfection efficiency was calculated as percent of cells expressing EGFP over total number of cells in the brightfield channel. […]\nAfter completion of the incubation period, the medium supernatants were removed and cells were washed with room-temperature DPBS. […] The firefly-luciferase activity (measurement of NF-κB activity) was measured using the luciferase reporter assay system (Promega, Fitchburg, Wis.). Briefly, 50 μl of luciferase assay reagent was added to the 20 μl cell lysate by automated dispenser of Synergy HT multi-mode microplate reader (Biotek, Winooski, Vt.), and luminescence was read within 10 seconds. […]"}, "[1]": {"test": "Binding to LPS by Limulus Amoebocyte Lysate (LAL) assay", "design": "species or system Escherichia coli", "conditions": "0-20 μM peptide; 0.01 ng/ml LPS; read at 6 and 12 minutes", "procedure": "Binding of SPA4 peptide to LPS: The binding of SPA4 peptide to LPS was studied by LAL assay as per the method described by Giacometti et al. (2004). Briefly, 0-20 μM SPA4 peptide or polymyxin B (positive control) solutions were added to 0.01 ng/ml Escherichia coli O111:B4 LPS (supplied with the kit, Charles River Laboratories International, Inc., Wilmington, Mass.) in the wells of a 96 well plate and incubated at 37° C. for 40 minutes. Fifty μl of LAL substrate solution was then added to each well, and the plate was incubated for another 10 minutes. Finally, substrate-buffer solution was added, and optical density readings (OD) were obtained at 405 nm after 0, 6 and 12 minutes of addition of substrate. AOD values for SPA4 peptide or polymyxin B incubated with LPS (ΔODtreatment), LPS alone (ΔODLPS) and blank (ΔODBlank) were calculated by subtracting the OD values obtained at 6 or 12 minutes from those obtained at 0 minutes. Percent binding of SPA4 peptide and polymyxin B was calculated at 6 and 12 minutes of reaction using following formula: […]"}, "DSS-colitis": {"test_system": "DSS-colitis", "test": "Dextran sodium sulfate (DSS)-colitis model in mice", "format": "in vivo", "conditions": "3% DSS 7 days, SPA4 100 μg daily intraperitoneal", "procedure": "SPA4 peptide reduced serum TNF-α and inflammation in Dextran sodium sulfate (DSS)-colitis model in mice (FIG. 18). SPA4 peptide was also evaluated in the mouse model of DSS-colitis. DSS (3% in drinking water) was given to the mice for a period of 7 days. In the treatment group, mice were simultaneously injected with SPA4 peptide (100 μg daily via intraperitoneal route). After 2 days of recovery period, the mice were weighed, colons were macroscopically examined, and blood samples were harvested. The TNF-α levels were measured by ELISA."}},
  "note": "Where no end group is shown, it is not given here.",
  "data": [
    {"sequence": "GDFRYSDGTPVNYTNWYRGE [SPA4, GDFRYSDGT PVNYTNWYRGE]", "values": [
      {"measurement": "expression of IL-6 precursors or active form, short-term treatment model", "setting": "IL-1β and IL-6", "value": "not significantly affected"},
      {"measurement": "expression of low molecular weight precursors and active IL-1β, post-LPS treatment models", "setting": "IL-1β and IL-6; 5 hours and 9 hours, dose-dependent", "value": "significantly decreased"},
      {"measurement": "IL-6 expression, prolonged treatment", "setting": "IL-1β and IL-6; 6 hours or 9 hours in pre- and post-LPS-treatment models", "value": "significantly inhibited"},
      {"measurement": "expression of IL-1β precursor and active forms, pre-LPS treatment model", "setting": "IL-1β and IL-6; SPA4 10 μM 2 hours then LPS 1.0 μg/ml 4 hours", "value": "significant decrease"},
      {"measurement": "expression of IL-1β precursor form 1", "setting": "IL-1β and IL-6; compared with LPS-treated cells", "value": "increased or unchanged"},
      {"measurement": "LPS induced NF-κB activity at 9 hours", "setting": "NF-κB; SPA4 1, 10 or 50 μM, long-term", "value": "not significantly inhibited"},
      {"measurement": "LPS induced-NF-κB activity after 5 hours", "setting": "NF-κB; SPA4 10 and 50 μM, short-term", "value": "reduces"},
      {"measurement": "NF-κB activity in cells transfected with dominant negative construct of MYD88", "setting": "NF-κB; MYD88DN", "value": "did not further reduce"},
      {"measurement": "binding to LPS", "setting": "[1]", "value": "does not bind to LPS"},
      {"measurement": "colitis symptoms (distension and shortening of the colon)", "setting": "DSS-colitis", "value": "reduced the colitis symptoms"},
      {"measurement": "DSS-induced serum levels of circulating TNF-α", "setting": "DSS-colitis; ELISA", "value": "completely inhibited"},
      {"measurement": "body weight", "setting": "DSS-colitis; compared to DSS-colitis mice", "value": "recovered"},
      {"measurement": "colon length", "setting": "DSS-colitis; compared to DSS-colitis mice", "value": "recovered"}
    ]}
  ]
}
